Key:
Type in all cases: cell-based
profilaggrin mRNA = test: Amplification test of profilaggrin mRNA (quantitative real-time PCR) in normal human epidermal cells; settings: for expression of profilaggrin mRNA, relative to N.C. = 100%: corrected with cyclophilin
Experimental: After samples were prepared using human epidermal cells, RNA of the cells was extracted and the quantity of mRNA of profilaggrin was determined.
Normal human epidermal cells (hereinafter, “epidermal cells”) (from Kurabo Industries Ltd.) were seeded at a cell density of 2.0×10^4 cells/well in a 96-well culture plate using a growth medium (KG2 medium: from Kurabo Industries Ltd.). After the cells were cultured at 37° C. under 5% carbon dioxide for 24 hours, the media were replaced with media (KB2 media not containing bovine pituitary extract: from Kurabo Industries Ltd.) to which Samples 11 to 18 described below were respectively added. Each of Samples 11, 14, and 17 as controls is a medium only. Samples 12, 13, 15, 16, and 18 are different from one another in the type and/or concentration (mass % with respect to the medium) of a diacylglycerol PEG adduct. • Sample 11: Control (N.C.) • Sample 12: GDS12 (0.100%) • Sample 13: GDS12 (0.050%) • Sample 14: Control (N.C.) • Sample 15: GDM12 (0.001%) • Sample 16: GDM12 (0.004%) • Sample 17: Control (N.C.) • Sample 18: GDS23 (0.002%)
Thereafter, the epidermal cells were cultured at 37° C. under 5% carbon dioxide for 3 hours. Subsequently, RNA was extracted from the cells.
(§1) Reverse transcription of the extracted RNA was performed to generate cDNA, and the quantity of profilaggrin mRNA was determined by quantitative real-time PCR expression analysis. Cyclophilin was used as an internal standard. In the analysis, the expression level of profilaggrin was corrected with a value of the expression level of cyclophilin as the internal standard in the same sample, and thereafter the correction value for each sample was calculated assuming the correction value for the control N.C. as 100%.

filaggrin [1] = test: Test 1 on promotion of filaggrin production: filaggrin immunostaining of human three-dimensional cultured epidermis model; settings: 2%, 3.5% solutions in PBS(−) (Samples 2-4)
Experimental: After samples were prepared using a human epidermis model, production of filaggrin was observed by applying two staining methods, that is, an immunostaining method using an anti-filaggrin antibody and the method of Hematoxylin Eosin staining.
A human three-dimensional cultured epidermis model (hereinafter, “epidermis model”) (LabCyteEPI-MODEL24 6D: from Japan Tissue Engineering Co., Ltd.) was subjected to treatment in the following manner to prepare samples.
First, the epidermis model was incubated in an agar medium at room temperature for 24 hours. Thereafter, the epidermis model was cultured in a medium (an assay medium: from Japan Tissue Engineering Co., Ltd.) at 37° C. for 48 hours. […]
Thereafter, an anti-filaggrin antibody (from GeneTex, Inc.) was made to react with that section at 37° C. overnight, and an anti-mouse IgG Alexa Fluor (registered trademark) 488 antibody (from Cell Signaling Technology, Inc.) was further made to react at 37° C. for 2 hours. […] Then, green fluorescence and blue fluorescence were observed using a fluorescence microscope. The green fluorescence indicates the presence of filaggrin. The blue fluorescence is for confirming that there is no abnormality in cells of the epidermis model.

caspase-14 mRNA = test: Caspase-14 mRNA expression (quantitative real-time PCR) in normal human epidermal cells; settings: for expression of caspase-14 mRNA versus N.C. / expression of caspase-14 mRNA, relative to N.C. = 100%: 3 hours; for expression of caspase-14 mRNA, relative to N.C. = 100%: corrected with cyclophilin
Experimental: After samples were prepared using human epidermal cells, RNA of the cells was extracted and the quantity of caspase-14 mRNA was determined.
Normal human epidermal cells (hereinafter, “epidermal cells”) (from Kurabo Industries Ltd.) were seeded at a cell density of 2.0×10^4 cells/well in a 96-well culture plate using a growth medium (KG2 medium: from Kurabo Industries Ltd.). After the cells were cultured at 37° C. under 5% carbon dioxide for 24 hours, the media were replaced with media (KB2 media not containing bovine pituitary extract: from Kurabo Industries Ltd.) to which Samples 19 to 26 described below were respectively added. Each of Samples 19 and 24 as controls is a medium only. Samples 20, 21, 22, 23, and 25 are different from one another in the type and/or concentration (mass % with respect to the medium) of a diacylglycerol PEG adduct contained in the medium. • Sample 19: Control (N.C.) • Sample 20: GDM12 (0.001%) • Sample 21: GDM12 (0.004%) • Sample 22: GDM12 (0.020%) • Sample 23: GDM12 (0.100%) • Sample 24: Control (N.C.) • Sample 25: GDS23 (0.0004%)
Subsequently, the epidermal cells were cultured at 37° C. under 5% carbon dioxide for 3 hours. Subsequently, RNA was extracted from the cells.
as §1, with “of caspase-14” for “of profilaggrin”, “value of” for “value for”, “was calculated,” for “was calculated”, “control sample” for “control N.C.”

filaggrin [2] = test: Test 2 on promotion of filaggrin production: dot blotting in normal human epidermal cells; settings: 72 hours
Experimental: After samples were prepared using human epidermal cells, production of filaggrin was observed by dot blotting and the quantity of filaggrin was determined.
Normal human epidermal cells (hereinafter, “epidermal cells”) (from Kurabo Industries Ltd.) were seeded at a cell density of 1.0×10^4 cells/well in a 96-well culture plate using a growth medium (KG2 medium: from Kurabo Industries Ltd.). After the cells were cultured at 37° C. under 5% carbon dioxide for 24 hours, the medium was replaced with media (KB2 media not containing bovine pituitary extract: from Kurabo Industries Ltd.) to which Samples 5 to 10 described below were respectively added. Each of Samples 5 and 8 as controls is a medium only. Samples 6, 7, 9, and 10 are different from one another in the type and/or concentration (mass % with respect to the medium) of a diacylglycerol PEG adduct to be added to the medium. • Sample 5: Control (N.C.) • Sample 6: GDM12 (0.0005%) • Sample 7: GDM12 (0.0010%) • Sample 8: Control (N.C.) • Sample 9: GDS23 (0.0025%) • Sample 10: GDS23 (0.0050%)
Thereafter, for each sample, the epidermal cells were cultured at 37° C. under 5% carbon dioxide for 72 hours. Subsequently, the epidermal cells were cleaned with PBS(−), 0.5% Triton X-100 (containing 2 mM PMSF) was then added, and thereafter the cells were disrupted by sonication.
A fixed amount of the suspension of disrupted cells was blotted on a nitrocellulose membrane and dried overnight. The transfer membrane after drying was immersed in a PBS solution of 1% BSA and blocked at room temperature for 1 hour. Thereafter, the membrane was cleaned with PBS(−), and an anti-human filaggrin antibody (Anti-Filaggrin: from ARGENE SA) was added onto the transfer membrane at a dilution concentration of 1:4000. The mixture was made to react at room temperature for 1 hour, and then the transfer membrane was cleaned with a PBS solution.
Thereafter, an immunohistochemical staining reagent (Histofine Simple Stain MAX-PO(M): from Nichirei Biosciences Inc.) was added onto the transfer membrane at a dilution concentration of 1:100 and was made to react at room temperature for 1 hour. […]
The brightness of each spot in the spot image obtained by dot blotting was quantitively determined using an analyzer (CS Analyzer Version 2.0: from ATTO Corporation).
FIG. 2a illustrates respective spot images for Samples 5, 6 and 7 related to GDM12, and FIG. 2b illustrates the production quantity of filaggrin for each sample determined based on FIG. 2a. The vertical axis of the graph represents the relative quantity when the quantity for the control N.C. is assumed as 100% (the same representation is also applied to graphs in drawings that will be described later).

PEG-12 glycerol distearate [GDS12]
expression of profilaggrin mRNA, relative to N.C. = 100% (profilaggrin mRNA; 0.050% in medium (Sample 13), 3 hours): about 150%
expression of profilaggrin mRNA, relative to N.C. = 100% (profilaggrin mRNA; 0.100% in medium (Sample 12), 3 hours): about 150%
concentration dependence of increase of profilaggrin mRNA (profilaggrin mRNA; Samples 12 and 13 (0.100%, 0.050%)): the increase is larger as the concentration of GDS12 is higher

PEG-12 glycerol dimyristate [GDM12]
increase of expression of profilaggrin mRNA versus N.C. (profilaggrin mRNA; 0.001% in medium (Sample 15), 3 hours): slight
expression of profilaggrin mRNA, relative to N.C. = 100% (profilaggrin mRNA; 0.004% in medium (Sample 16), 3 hours): about 150%
concentration dependence of production quantity of filaggrin (filaggrin [1]): more as the concentration of the GDM12 solution is higher
production quantity of filaggrin in the stratum corneum (green fluorescence) versus N.C. (filaggrin [1]; 30 μL on stratum corneum, 18 hours, model recovered 6 days after application): more than that of the epidermis model of N.C.
expression of caspase-14 mRNA versus N.C. (caspase-14 mRNA; 0.001% in medium (Sample 20)): increased
expression of caspase-14 mRNA versus N.C. (caspase-14 mRNA; 0.004% in medium (Sample 21)): increased
expression of caspase-14 mRNA, relative to N.C. = 100% (caspase-14 mRNA; 0.020% in medium (Sample 22)): about 200%
expression of caspase-14 mRNA, relative to N.C. = 100% (caspase-14 mRNA; 0.100% in medium (Sample 23)): about 400%
concentration dependence of increase of caspase-14 mRNA (caspase-14 mRNA; Samples 20-23 (0.001% to 0.100%)): the increase is larger as the concentration of GDM12 is higher
production quantity of filaggrin, relative to N.C. = 100% (filaggrin [2]; 0.0005% in medium (Sample 6)): ≥ 200%
production quantity of filaggrin, relative to N.C. = 100% (filaggrin [2]; 0.0010% in medium (Sample 7)): ≥ 200%

PEG-23 glycerol distearate [GDS23]
expression of profilaggrin mRNA, relative to N.C. = 100% (profilaggrin mRNA; 0.002% in medium (Sample 18), 3 hours): about 120%
expression of caspase-14 mRNA, relative to N.C. = 100% (caspase-14 mRNA; 0.0004% in medium (Sample 25)): about 150%
production quantity of filaggrin, relative to N.C. = 100% (filaggrin [2]; 0.0025% in medium (Sample 9)): about 200%
production quantity of filaggrin, relative to N.C. = 100% (filaggrin [2]; 0.0050% in medium (Sample 10)): about 200%
